Data taken from the NIST ThermoML archive (doi:10.1016/j.jct.2003.08.018).
Numbers after ± are expanded uncertainties. Values belong to the molecule of their own block, whether it stands above or below them.

Experiment: activity coefficient (dimensionless); of the first substance listed, at infinite dilution; xn = mol fraction of the nth substance listed
Conditions: Liquid, Chromatography, x1 = 0

Compound: C=CC=C [1,3-butadiene] + CCCO
activity coefficient (260.02 K): 4.2 ± 0.19
activity coefficient (280.03 K): 4.15 ± 0.18
activity coefficient (299.99 K): 4.1 ± 0.18
activity coefficient (320.09 K): 4.06 ± 0.18
activity coefficient (340.06 K): 3.98 ± 0.18

activity coefficient (260.02 K): 4.2 ± 0.19
activity coefficient (280.03 K): 4.15 ± 0.18
activity coefficient (299.99 K): 4.1 ± 0.18
activity coefficient (320.09 K): 4.06 ± 0.18
activity coefficient (340.06 K): 3.98 ± 0.18
Compound: C/C=C/C [(E)-2-butene] + CCCO

activity coefficient (260.03 K): 4.13 ± 0.18
activity coefficient (280.04 K): 4.12 ± 0.18
activity coefficient (299.98 K): 4.11 ± 0.18
activity coefficient (320.03 K): 4.05 ± 0.18
activity coefficient (340 K): 4.01 ± 0.18
Compound: C=CCC [1-butene] + CCCO

activity coefficient (259.92 K): 3.58 ± 0.16
activity coefficient (279.94 K): 3.61 ± 0.16
activity coefficient (300.03 K): 3.66 ± 0.16
activity coefficient (320.02 K): 3.64 ± 0.16
activity coefficient (340.1 K): 3.64 ± 0.16
Compound: C=CC [propene] + CCCO

activity coefficient (259.91 K): 4.09 ± 0.18
activity coefficient (279.95 K): 4.08 ± 0.18
activity coefficient (299.94 K): 4.04 ± 0.18
activity coefficient (320.06 K): 4 ± 0.18
activity coefficient (340.16 K): 3.94 ± 0.17
Compound: C=C(C)C [2-methylpropene] + CCCO

activity coefficient (260.05 K): 5.17 ± 0.23
activity coefficient (280.05 K): 5.06 ± 0.22
activity coefficient (299.99 K): 5.03 ± 0.22
activity coefficient (320.05 K): 4.88 ± 0.22
Compound: CCCC [butane] + CCCO

activity coefficient (259.98 K): 5.48 ± 0.24
activity coefficient (279.94 K): 5.37 ± 0.24
activity coefficient (300.16 K): 5.24 ± 0.23
activity coefficient (320 K): 5.14 ± 0.23
activity coefficient (339.92 K): 5.05 ± 0.22
Compound: CC(C)C [2-methylpropane] + CCCO

activity coefficient (259.98 K): 4.6 ± 0.2
activity coefficient (279.96 K): 4.62 ± 0.2
activity coefficient (299.96 K): 4.64 ± 0.2
activity coefficient (320.03 K): 4.61 ± 0.2
activity coefficient (339.95 K): 4.56 ± 0.2
Compound: CCC [propane] + CCCO
